{"source": "patent US12274710B2", "about": "“Compound for regulating body weight imbalance, composition thereof and application thereof” (GUANGZHOU CENTURY CLINICAL RESEARCH CO., LTD, priority 2019, dated 2025)", "key": {"rats in obese model": {"tested_on": "rats in obese model", "assay": "Effect on BMI of rats in obese model (formula feed)", "format": "in vivo, SD rats", "conditions": "for BMI / BMI of animals compared with the model group (in words): 4 weeks; for BMI: model group 7.73 ± 0.27", "from_the_text": "Except the blank group and the model group, each group had three subgroups: low dose, middle dose, and high dose. There were 6 animals in each subgroup.\nThe animals in the blank group were fed with a common feed every day. The animals in each group except the blank group were fed with a formula feed every day. The formula feed contained 5% of cholesterol, 6% of sucrose, 20% of egg yolk, 6% of peanut butter, 12% of whole milk powder, 6% of sesame oil (the percentage was by mass) and other ingredients of the common feed.\nEach test drug was mixed with 5% methylcellulose solution; the animals in each group except the blank group and the model group were administered intragastrically respectively with a low dose of 100 mg/kg, a middle dose of 400 mg/kg and a high dose of 1,600 mg/kg; the animals in the blank group and the model group were not administered with the test drug and they were administered intragastrically with the same amount of 5% methylcellulose solution respectively. The intragastric administration was conducted once a day continuously for 4 weeks.\nDuring the test process, the animals in each group were able to eat normally without anorexia. The stool characteristics were normal and no obvious diarrhea occurred.\nAfter the last drug administration, the animals in each group were fasted for 12 h, during which water was provided, and then the animals were weighed.\nBody length (distance from the nose to the anus) was measured after the animals were anesthetized with sodium pentobarbital and body mass index (BMI) (BMI=weight (kg)÷(height (m))^2) was calculated.\nStatistical analysis was conducted by using the data in each group and the main results were screened and shown in Table 3 (Note: some test drugs in the table only list the middle-dose subgroups)."}, "[1]": {"conditions": "for Rate of weight change: after treatment vs before, 4 weeks", "from_the_text": "(§1) The dosage was based on a standard dosage of 3 g per day and should be increased or decreased according to individual conditions of the patients.\nWeight changes of patients before and after treatment were also investigated: Rate of weight change=(weight after treatment−weight before treatment)÷weight before treatment×100%."}, "[2]": {"tested_on": "persons suffering from weight imbalance"}, "[3]": {"tested_on": "patients diagnosed with gastric ulcer or duodenal ulcer", "assay": "Routine examination indicators and digestive function before and after drug treatment (safety)", "format": "in vivo, human", "conditions": "after treatment, 4 weeks", "from_the_text": "(§2) Efficacy and safety of the compound of the present disclosure in treating ulcers were studied in patients suffering from gastric ulcer or duodenal ulcer.\nas §1\nThe number of red blood cells, the number of white blood cells, ALT, AST, serum creatinine, urine protein and other laboratory test items were checked before and after treatment. Routine clinical diagnostic criterias were used to determine whether the test items were normal and the normal rate was calculated. Normal rate of test indicators=number of patients with normal test indicators÷total number of patients in this group×100%\nEffects of the drug on normal digestive function of the patients were also investigated before and after treatment by determining the rate of loose stool and the rate of constipation: Rate of loose stool=number of patients with loose stool÷total number of patients in this group×100%; and Rate of constipation=number of patients with constipation÷total number of patients in this group×100%."}, "[4]": {"tested_on": "patients diagnosed with gastric ulcer or duodenal ulcer", "conditions": "4 weeks", "from_the_text": "as §2, §1\nThe number of ulcer foci and the area of ulcer foci (mm^2) of each patient were checked before and after the treatment, and the efficacy after treatment was judged according to the following criteria:\nCompletely healed: after the treatment, the ulcers and surrounding inflammation all disappeared after an endoscopic examination;\nBasically healed: after the treatment, the ulcers disappeared in an endoscopic examination, but there was still inflammation; and partially healed: after the treatment, the area of the ulcers was reduced by 50% or more in an endoscopic examination; and\nUnhealed: after the treatment, the area of the ulcers was reduced by less than 50% in an endoscopic examination.\nThe healing rate was used as an indicator of efficacy. Healing rate=(number of completely healed patients+number of basically healed patients)÷total number of patients in this group×100%."}, "[5]": {"conditions": "middle dose 400 mg/kg intragastrically once a day"}}, "note": "Read-outs that look alike come from different tables or passages of the source.", "data": [{"compound": "COc1ccc(-c2cc(=O)c3c(O)cc(O[C@@H]4O[C@H](CO[C@@H]5O[C@@H](C)[C@H](O)[C@@H](O)[C@H]5O)[C@@H](O)[C@H](O)[C@H]4O)cc3o2)cc1O", "note": "[diosmin, reference compound]", "values": [{"measurement": "BMI", "setting": "rats in obese model; [5]", "value": "7.60 ± 0.39", "unit": "kg/m^2"}, {"measurement": "BMI of animals compared with the model group (in words)", "setting": "rats in obese model; obese model rats", "value": "no significant difference"}]}, {"compound": "dosmalfate [compound 3]", "values": [{"measurement": "Rate of weight change", "setting": "[1]; Group 0.5 g", "value": "−4.2", "unit": "%"}, {"measurement": "Rate of weight change", "setting": "[1]; Group 1 g", "value": "−5.3", "unit": "%"}, {"measurement": "Rate of weight change", "setting": "[1]; Group 3 g", "value": "−7.0", "unit": "%"}, {"measurement": "Rate of weight change", "setting": "[1]; Group 9 g", "value": "−7.1", "unit": "%"}, {"measurement": "Rate of weight change", "setting": "[1]; Group 18 g", "value": "−3.8", "unit": "%"}, {"measurement": "Effect on weight of ulcer patients (in words)", "setting": "[1]; each dosage group, after 4 weeks of administration", "value": "weight loss to varing degrees"}, {"measurement": "BMI", "setting": "rats in obese model; high dose 1,600 mg/kg intragastrically once a day", "value": "5.85 ± 0.23", "unit": "kg/m^2"}, {"measurement": "BMI", "setting": "rats in obese model; low dose 100 mg/kg intragastrically once a day", "value": "6.72 ± 0.32", "unit": "kg/m^2"}, {"measurement": "BMI", "setting": "rats in obese model; [5]", "value": "6.06 ± 0.29", "unit": "kg/m^2"}, {"measurement": "BMI of animals compared with the model group (in words)", "setting": "rats in obese model; obese model rats", "value": "significantly reduced"}, {"measurement": "Relative effectiveness on BMI at the same dose (in words)", "setting": "rats in obese model; obese model rats, same dose", "value": "more effective than compound 1 and compound 2"}, {"measurement": "Uric acid level after administration", "setting": "[2]; A person, 680 μmol/L before, 3 g three times a day, two months, no uric acid-lowering drug", "value": 600, "unit": "µmol/L"}, {"measurement": "BMI index after administration", "setting": "[2]; A person, BMI 29 before, 1.5 g three times a day, three months", "value": 25.7}, {"measurement": "BMI index after administration", "setting": "[2]; A person, BMI 32 before, 3 g three times a day, two months", "value": 28.2}, {"measurement": "BMI index after administration", "setting": "[2]; Person, BMI 25 before, 1 g twice a day, two months", "value": 22}, {"measurement": "Body weight after administration", "setting": "[2]; Person, obesity and hyperuricemia, 85 kg before, 3 g three times a day, two months", "value": 75, "unit": "kg"}, {"measurement": "Body weight after administration", "setting": "[2]; Person, polycystic ovary syndrome, 62 kg before, 1.5 g three times a day, three months", "value": 55, "unit": "kg"}, {"measurement": "Normal rate of ALT", "setting": "[3]; Group 0.5 g", "value": 90.0, "unit": "%"}, {"measurement": "Normal rate of AST", "setting": "[3]; Group 0.5 g", "value": 100.0, "unit": "%"}, {"measurement": "Normal rate of red blood cells", "setting": "[3]; Group 0.5 g", "value": 100.0, "unit": "%"}, {"measurement": "Normal rate of serum creatinine", "setting": "[3]; Group 0.5 g", "value": 100.0, "unit": "%"}, {"measurement": "Normal rate of urine protein", "setting": "[3]; Group 0.5 g", "value": 100.0, "unit": "%"}, {"measurement": "Normal rate of white blood cells", "setting": "[3]; Group 0.5 g", "value": 100.0, "unit": "%"}, {"measurement": "Rate of constipation", "setting": "[3]; Group 0.5 g", "value": 0.0, "unit": "%"}, {"measurement": "Rate of loose stool", "setting": "[3]; Group 0.5 g", "value": 0.0, "unit": "%"}, {"measurement": "Normal rate of ALT", "setting": "[3]; Group 1 g", "value": 94.4, "unit": "%"}, {"measurement": "Normal rate of AST", "setting": "[3]; Group 1 g", "value": 100.0, "unit": "%"}, {"measurement": "Normal rate of red blood cells", "setting": "[3]; Group 1 g", "value": 94.4, "unit": "%"}, {"measurement": "Normal rate of serum creatinine", "setting": "[3]; Group 1 g", "value": 100.0, "unit": "%"}, {"measurement": "Normal rate of urine protein", "setting": "[3]; Group 1 g", "value": 94.4, "unit": "%"}, {"measurement": "Normal rate of white blood cells", "setting": "[3]; Group 1 g", "value": 100.0, "unit": "%"}, {"measurement": "Rate of constipation", "setting": "[3]; Group 1 g", "value": 0.0, "unit": "%"}, {"measurement": "Rate of loose stool", "setting": "[3]; Group 1 g", "value": 0.0, "unit": "%"}, {"measurement": "Normal rate of ALT", "setting": "[3]; Group 3 g", "value": 91.9, "unit": "%"}, {"measurement": "Normal rate of AST", "setting": "[3]; Group 3 g", "value": 94.6, "unit": "%"}, {"measurement": "Normal rate of red blood cells", "setting": "[3]; Group 3 g", "value": 94.6, "unit": "%"}, {"measurement": "Normal rate of serum creatinine", "setting": "[3]; Group 3 g", "value": 94.6, "unit": "%"}, {"measurement": "Normal rate of urine protein", "setting": "[3]; Group 3 g", "value": 94.6, "unit": "%"}, {"measurement": "Normal rate of white blood cells", "setting": "[3]; Group 3 g", "value": 91.9, "unit": "%"}, {"measurement": "Rate of constipation", "setting": "[3]; Group 3 g", "value": 2.7, "unit": "%"}, {"measurement": "Rate of loose stool", "setting": "[3]; Group 3 g", "value": 0.0, "unit": "%"}, {"measurement": "Normal rate of ALT", "setting": "[3]; Group 9 g", "value": 90.0, "unit": "%"}, {"measurement": "Normal rate of AST", "setting": "[3]; Group 9 g", "value": 90.0, "unit": "%"}, {"measurement": "Normal rate of red blood cells", "setting": "[3]; Group 9 g", "value": 90.0, "unit": "%"}, {"measurement": "Normal rate of serum creatinine", "setting": "[3]; Group 9 g", "value": 100.0, "unit": "%"}, {"measurement": "Normal rate of urine protein", "setting": "[3]; Group 9 g", "value": 100.0, "unit": "%"}, {"measurement": "Normal rate of white blood cells", "setting": "[3]; Group 9 g", "value": 100.0, "unit": "%"}, {"measurement": "Rate of constipation", "setting": "[3]; Group 9 g", "value": 0.0, "unit": "%"}, {"measurement": "Rate of loose stool", "setting": "[3]; Group 9 g", "value": 0.0, "unit": "%"}, {"measurement": "Normal rate of ALT", "setting": "[3]; Group 18 g", "value": 100.0, "unit": "%"}, {"measurement": "Normal rate of AST", "setting": "[3]; Group 18 g", "value": 100.0, "unit": "%"}, {"measurement": "Normal rate of red blood cells", "setting": "[3]; Group 18 g", "value": 80.0, "unit": "%"}, {"measurement": "Normal rate of serum creatinine", "setting": "[3]; Group 18 g", "value": 100.0, "unit": "%"}, {"measurement": "Normal rate of urine protein", "setting": "[3]; Group 18 g", "value": 100.0, "unit": "%"}, {"measurement": "Normal rate of white blood cells", "setting": "[3]; Group 18 g", "value": 80.0, "unit": "%"}, {"measurement": "Rate of constipation", "setting": "[3]; Group 18 g", "value": 0.0, "unit": "%"}, {"measurement": "Rate of loose stool", "setting": "[3]; Group 18 g", "value": 0.0, "unit": "%"}, {"measurement": "Healing rate of ulcers", "setting": "[4]; Group 0.5 g/day, 10 patients", "value": 30.0, "unit": "%"}, {"measurement": "Healing rate of ulcers", "setting": "[4]; Group 1 g/day, 18 patients", "value": 55.6, "unit": "%"}, {"measurement": "Healing rate of ulcers", "setting": "[4]; Group 3 g/day, 37 patients", "value": 62.2, "unit": "%"}, {"measurement": "Healing rate of ulcers", "setting": "[4]; Group 9 g/day, 10 patients", "value": 80.0, "unit": "%"}, {"measurement": "Healing rate of ulcers", "setting": "[4]; Group 18 g/day, 5 patients", "value": 80.0, "unit": "%"}]}, {"compound": "sucralfate [reference compound]", "values": [{"measurement": "BMI", "setting": "rats in obese model; [5]", "value": "7.87 ± 0.34", "unit": "kg/m^2"}, {"measurement": "BMI of animals compared with the model group (in words)", "setting": "rats in obese model; obese model rats", "value": "no significant difference"}]}]}
